Laboratory results taken from US20260273029A1, “DRY EYE TREATMENT” (Inoculus Ventures, LLC, priority 2022, published 2026).

How the values were obtained:
biofilm on the eyelid = assay: Treatment of a human subject (Example 13): eyelid photographs and reported symptoms; type: in vivo; conditions: daily Avenova
Source text: All images are from the same subject at the Watson Dry Eye Center in Raleigh NC at the specified times. The images were reviewed retrospectively to determine if the visual signs of biofilm on the eyelid were removed by a composition of α-amylase from Aspergillus oryzae and 0.01% hypochlorous acid. It should be noted that from May 23, 2018-Nov. 20, 2020 the patient cleaned their eyes with just 0.01% hypochlorous acid in saline two times a day. After this, the patient used the novel composition of α-amylase from Aspergillus oryzae and 0.01% hypochlorous acid. The first composition was made from powdered α-amylase from Aspergillus oryzae and liquid 0.01% hypochlorous acid in saline right before application to the eyelid with a cotton swab. […] Dosage information is written on the timeline below.
FIG. 1A and FIG. 1B are photographs depicting two different areas of an eye of the subject afflicted with blocked meibomian glands, shiny biofilm at the base of eyelashes, shine biofilm on eyelashes, and lash growth misdirection taken on May 23, 2018 (time 0). After the photos were taken, the subject was treated with Blephex and Intense Pulse Light Therapy for biofilm removal treating inflammation.
Subject received a subsequent treatment session on Dec. 4, 2018. FIG. 2A and FIG. 2B are photographs depicting the two different areas of the eye of the subject on Dec. […]

[1] = tested on: Staphylococcus aureus biofilms; assay: S. Aureus biofilm reduction in 96 well plate: 10 min treatment, crystal violet stain, optical density at 600 nm; type: cell-based, Staphylococcus aureus subsp. aureus Rosenbach (ATCC 29213); conditions: for Reduction in Enzyme Effectiveness by preservative: 10 mg/mL α-amylase + preservative, FIG. 12A, 12B
Procedure: • Step 1. Place a new CuveTip on the Photopette • Step 2. Turn on the Photopette and ensure the bluetooth has connected to the iPad. • Step 3. Open the App and set the measurement to collect at 600 nm (use ecoli setting for brevity). • Step 4. Zero the Photopette in DI water, and clean the tip with a chemwipe. • Step 5. Aseptically transfer 100 ml of the TSB citrate media (TSBC) to a flask. • Step 6. Aseptically transfer the overnight culture of Staphylococcus aureus subsp. aureus Rosenbach (ATCC 29213) in Tryptic Soy Broth to the TSB citrate media (TSBC) using a pipet until the culture is diluted to A600 of 0.02 (~2×10^8 CFU/ml) measured with the Photopette. • Step 7. Remove a sterile 96 well plate from the sterile packaging in the hood and place on the table. • Step 8. Set an 8 channel pipet for […] and attach sterile tips. • Step 9. Plate the desired number of wells with […] of the diluted culture. • Step 10. Cover the well plate and incubate overnight for 18 hrs at 37° C.
Plate S. Aureus in all wells of a 96 tissue culture treated well plate. The well plate should incubate for 18 hrs at 37° C. before being assayed for biofilm formation.
Carefully tilt plate and pipet all liquid from the wells by inserting the pipet tips in the bottom corner of the wells to remove non-adherent cells without disturbing the biofilm grown on the bottom of the well.
Start a timer for 10 minutes when the first row is treated using an 8-channel pipette. Each row should be treated every 30 seconds making sure to gently release the composition in the corner of the well to not disturb the biofilm mechanically.
After 10 min all fluid should be removed row by row every 30 seconds starting with Row 1. The fluid must be removed with gentle pipetting, with the plate at an angle, with the pipette in the corner to remove non-adherent cells without disturbing the biofilm grown on the bottom of the well.
Add 50 μl of 0.1% crystal violet (CV) to stain adherent cells for all wells.
Carefully rinse all wells by submerging the plate in a DI water bath to remove all remaining crystal violet.
Dry the well plate and measure the optical density of the biofilms using a plate reader at 600 nm.
Repeat the steps outlined in 1.2 and 1.3 for scheduled testing days on days 7, 14, 21, 28, and 35. For each day of testing scheduled at days 7, 14, 21, 28, and 35 a well plate of biofilm should be prepared the day before.
The remaining biofilm density was assessed using a cell plate reader at 600 nm called an optical density 600 (OD600) measurement.
Staphylococcus aureus biofilms were grown in 96 well (Corning Falcon) cell culture treated plates using a TSB broth supplemented with yeast extract, glucose, and sodium citrate to induce biofilm formation and incubated for 18 hours.
Non-adherent cells were removed and the biofilms were treated with different solutions to test the ability to break down the Staph. aureus biofilms. Solutions with α-amylase were produced at 10 mg/mL using α-amylase from Aspergillus oryzae (Sigma-Aldrich Catalog #10065) ~30 U/mg.
After 10 minutes of incubation non-adherent cells were removed and the residual biofilms were stained with crystal violet. The density of the remaining biofilm was measured at 600 nm using a Byonoy Absorbance 96 plate reader.
Staphylococcus aureus biofilms were grown in 96 well (Crnming Falcon) cell culture treated plates using a TSB broth supplemented with yeast extract, glucose, and sodium citrate to induce biofilm formation and incubated for 18 hours. […]

For OCl [0.01% hypochlorous acid, hypochlorous acid], the “biofilm at the eyelashes” value (biofilm on the eyelid; time 2 (June 18 2019), FIG. 3A) was “the biofilm continues to grow at the base of the eyelashes”, the “biofilm at the eyelashes and eyelid” value (biofilm on the eyelid; time 3 (October 15 2019), FIGS. 4A and 4B) was “the shine biofilm remains at the eyelashes and inside the eyelid” and the “inhibition of biofilm removal by the enzyme” value ([1]; 0.01% hypochlorous acid with 10 mg/ml α-amylase and cofactors, FIG. 13) was “did not inhibit biofilm removal by the enzyme”. For the same compound, the “biofilm reduction by the additive on its own” value ([1]; without α-amylase, 10 min) was “slightly reduce the biofilm”.

OC[C@H]1O[C@H](O[C@H]2O[C@H](CO)[C@@H](O)[C@H](O)[C@H]2O)[C@H](O)[C@@H](O)[C@@H]1O [Trehalose] was tested, and the “differences in the enzyme activity (break down of biofilms) between concentrations” value ([1]; 3%, 6.8%, and 8% Trehalose solutions, α=0.05, FIG. 17) was “no significant differences”.

“benzalkonium chloride [BAK (benzalkonium chloride) 0.01%]” was tested, and the “Reduction in Enzyme Effectiveness by preservative” value ([1]; 10 min) was “No Reduction in Enzyme Effectiveness”.

For “sodium perborate [GenAqua/Dequest (sodium perborate)]”, the “Reduction in Enzyme Effectiveness by preservative” value ([1]; 10 min) was “No Reduction in Enzyme Effectiveness”.
